Results taken from patent US20260215428A1, “WEED CONTROL METHOD” (SYNGENTA CROP PROTECTION AG, priority 2023, published 2026).

Test system: Lolium multiflorum
Experiment: Further glasshouse test versus other ACCase-inhibiting herbicides, Table B2-1
Assay type: in vivo
Conditions: 21 days after application
Source text: Further tests were employed to test the efficacy of a compound of Formula I versus other ACCase-inhibiting herbicides. The five main targets were Lolium multiflorum, Eleusine indica, Digitaria insularis, Sorghum halepense and Echinochloa crus-galli. Collectively, the populations contained all the major target-site resistance mutations affecting ACCase herbicides. Two L. multiflorum (LM-NTSR-1 and LM-NTSR-2) and one E. crus-galli (ECG-NTSR-1) populations were characterised exclusively by non-target-site resistance (“NTSR”). The target-site resistant L. multiflorum and E. indication populations were 100% homozygous for different ACCase mutations whilst the D. insularis, S. halepense and E. crus-galli samples contained a mixture of homozygous wild and mutant individuals at different genotypic frequencies. Additional underlying NTSR cannot be ruled out in the populations characterised by target-site resistance.
Around 50 seeds of each of the 24 weed populations were sown in 12-cm pots containing a mixture of peat and compost in a 1:1 ratio. The pots were watered, fertilised and kept in controlled glasshouse conditions set at 24° C./16 hr day, 18° C. night, 65% relative humidity, and a photon flux density of approximately 250 μmol quanta m^−2 s^−1 for Lolium multiflorum. The E. indica, D. insularis, S. halepense and E. crus-galli plants were kept in a separate glasshouse bay characterised by a 17 H photoperiod of 180 μmol m^−2 s^−1 with temperatures of 25° C. day and 19° C. night and 65% relative humidity. When the plants were at the two to four-leaf stage, they were treated with the various ACCase-inhibiting herbicides at 0, 15, 30, 60, 120 and 240 g ai ha^−1 in a spray cabinet mounted with a single mobile Teejet flat fan nozzle (11002VS) calibrated to deliver 200 L ha^−1 at 200 kPa. The L. multiflorum populations were treated by a compound of Formula Ic, clodinafop-propargyl, pinoxaden, cycloxydim and clethodim and the warm season grass weeds E. indica, D. insularis, S. halepense and E. crus-galli were sprayed with a Compound Ic and the commonly employed haloxyfop-methyl and clethodim. Three replicate pots were used per population. Plants were assessed for visual damage compared to the untreated control 21 days after application (0=0% damage; 100=100% damage).

[1] = population LM-NTSR-1 (non-target-site resistance), 15 g/ha
[2] = population LM-NTSR-1 (non-target-site resistance), 30 g/ha
[3] = population LM-NTSR-1 (non-target-site resistance), 60 g/ha
[4] = population LM-NTSR-1 (non-target-site resistance), 120 g/ha
[5] = population LM-NTSR-1 (non-target-site resistance), 240 g/ha
[6] = population LM-NTSR-2 (non-target-site resistance), 15 g/ha
[7] = population LM-NTSR-2 (non-target-site resistance), 30 g/ha
[8] = population LM-NTSR-2 (non-target-site resistance), 60 g/ha
[9] = population LM-NTSR-2 (non-target-site resistance), 120 g/ha
[10] = population LM-NTSR-2 (non-target-site resistance), 240 g/ha

## C#CCOC(=O)[C@@H](C)Oc1ccc(Oc2ncc(Cl)cc2F)cc1 [Clodinafop-propargyl, clodinafop-propargyl]
Biotype C2088R, 15 g/ha
  visual damage: 0%
Biotype C2088R, 30 g/ha
  visual damage: 0%
Biotype C2088R, 60 g/ha
  visual damage: 0%
Biotype C2088R, 120 g/ha
  visual damage: 0%
Biotype C2088R, 240 g/ha
  visual damage: 7%
Biotype D2078G, 15 g/ha
  visual damage: 0%
Biotype D2078G, 30 g/ha
  visual damage: 0%
Biotype D2078G, 60 g/ha
  visual damage: 0%
Biotype D2078G, 120 g/ha
  visual damage: 0%
Biotype D2078G, 240 g/ha
  visual damage: 0%
Biotype I1781L, 15 g/ha
  visual damage: 7%
Biotype I1781L, 30 g/ha
  visual damage: 7%
Biotype I1781L, 60 g/ha
  visual damage: 7%
Biotype I1781L, 120 g/ha
  visual damage: 10%
Biotype I1781L, 240 g/ha
  visual damage: 33%
Biotype Sensitive, 15 g/ha
  visual damage: 67%
Biotype Sensitive, 30 g/ha
  visual damage: 98%
Biotype Sensitive, 60 g/ha
  visual damage: 100%
Biotype Sensitive, 120 g/ha
  visual damage: 100%
Biotype Sensitive, 240 g/ha
  visual damage: 100%
Biotype W1999S, 15 g/ha
  visual damage: 0%
Biotype W1999S, 30 g/ha
  visual damage: 0%
Biotype W1999S, 60 g/ha
  visual damage: 0%
Biotype W1999S, 120 g/ha
  visual damage: 0%
Biotype W1999S, 240 g/ha
  visual damage: 0%
Biotype W2027C, 15 g/ha
  visual damage: 0%
Biotype W2027C, 30 g/ha
  visual damage: 0%
Biotype W2027C, 60 g/ha
  visual damage: 0%
Biotype W2027C, 120 g/ha
  visual damage: 0%
Biotype W2027C, 240 g/ha
  visual damage: 0%
[1]
  visual damage: 0%
[2]
  visual damage: 0%
[3]
  visual damage: 0%
[4]
  visual damage: 27%
[5]
  visual damage: 52%
[6]
  visual damage: 0%
[7]
  visual damage: 0%
[8]
  visual damage: 0%
[9]
  visual damage: 0%
[10]
  visual damage: 0%

## CCCC(=NOCC)C1=C(O)CC(C2CCCSC2)CC1=O (centres unmarked) [Cycloxydim, cycloxydim]
Biotype C2088R, 15 g/ha
  visual damage: 0%
Biotype C2088R, 30 g/ha
  visual damage: 0%
Biotype C2088R, 60 g/ha
  visual damage: 0%
Biotype C2088R, 120 g/ha
  visual damage: 0%
Biotype C2088R, 240 g/ha
  visual damage: 0%
Biotype D2078G, 15 g/ha
  visual damage: 0%
Biotype D2078G, 30 g/ha
  visual damage: 0%
Biotype D2078G, 60 g/ha
  visual damage: 0%
Biotype D2078G, 120 g/ha
  visual damage: 3%
Biotype D2078G, 240 g/ha
  visual damage: 7%
Biotype I1781L, 15 g/ha
  visual damage: 0%
Biotype I1781L, 30 g/ha
  visual damage: 0%
Biotype I1781L, 60 g/ha
  visual damage: 7%
Biotype I1781L, 120 g/ha
  visual damage: 13%
Biotype I1781L, 240 g/ha
  visual damage: 13%
Biotype Sensitive, 15 g/ha
  visual damage: 0%
Biotype Sensitive, 30 g/ha
  visual damage: 0%
Biotype Sensitive, 60 g/ha
  visual damage: 0%
Biotype Sensitive, 120 g/ha
  visual damage: 88%
Biotype Sensitive, 240 g/ha
  visual damage: 100%
Biotype W1999S, 15 g/ha
  visual damage: 0%
Biotype W1999S, 30 g/ha
  visual damage: 0%
Biotype W1999S, 60 g/ha
  visual damage: 0%
Biotype W1999S, 120 g/ha
  visual damage: 0%
Biotype W1999S, 240 g/ha
  visual damage: 0%
Biotype W2027C, 15 g/ha
  visual damage: 0%
Biotype W2027C, 30 g/ha
  visual damage: 0%
Biotype W2027C, 60 g/ha
  visual damage: 0%
Biotype W2027C, 120 g/ha
  visual damage: 0%
Biotype W2027C, 240 g/ha
  visual damage: 50%
[1]
  visual damage: 0%
[2]
  visual damage: 0%
[3]
  visual damage: 0%
[4]
  visual damage: 3%
[5]
  visual damage: 60%
[6]
  visual damage: 0%
[7]
  visual damage: 0%
[8]
  visual damage: 0%
[9]
  visual damage: 0%
[10]
  visual damage: 0%
